1 molecule from US8618082B2, “Lupeol anti-tumor agent and uses thereof” (Wisconsin Alumni Research Foundation, priority 2004, dated 2013) can be followed below.

The subject of one data set is CD-1 mouse skin. Put plainly: TPA-induced epidermal hyperplasia (hematoxylin and eosin histology). The data set is classed as in vivo. As for the experimental part: FIG. 2. Inhibitory effect of Lupeol on TPA-induced hyperplasia in CD-1 mice: 24 and 48 h after treatment, the animals were sacrificed; skin biopsies were processed for hematoxylin and eosin staining. Representative pictures are shown.
The effect of topical application of Lupeol on TPA-mediated induction of epidermal hyperplasia was then assessed.
The animals were shaved on the dorsal side of the skin, divided into four groups and treated topically on the shaved area with either 0.4 ml vehicle (acetone), or TPA (3.2 nmol/0.4 ml acetone/animal, v/v), or Lupeol (1 or 2 mg/0.2 ml acetone/animal, w/v) followed 30 min later with TPA (3.2 nmol/0.2 ml acetone/animal). Animals were sacrificed at different times point i.e. 6, 12, 24 and 48 h post TPA treatment. The epidermis was separated from the whole skin and homogenized in 0.1 M Tris-HCl buffer (pH 7.2) using a Polytron tissue homogenizer (Brinkmann Instruments, Westbury, N.Y., USA) at 100,000×g supernatant, and microsomal fractions were prepared as described earlier (Katiyar and Mukhtar, 1997). […]
To assess the inhibitory effect of pre-application of Lupeol on TPA-induced edema, 1 cm-diameter punches of skin from vehicle-, Lupeol-, TPA- or Lupeol- and TPA-treated mice were removed, made free of fat pads, and weighed immediately. After drying for 24 h at 50° C., the skin punches were reweighed, and the loss of water content was determined. […]

Data set [1] deals with catalytic (p110) and regulatory (p85) subunit of PI3K. Briefly: TPA-induced epidermal PI3K expression (western blot). The format is in vivo, mouse. The method, then: FIG. 5. Inhibitory effect of Lupeol on TPA-induced activation of PI3K and phosphorylation of Akt in CD-1 mice: At different times after treatment, the animals were sacrificed, epidermal protein lysate was prepared, and PI3K and phosphorylated (Thr^308) Akt and total Akt protein expression were determined. The immunoblots shown here are representative of three independent experiments with similar results. The values above each lane indicate relative density of the band normalized to β-actin.
The animals were shaved on the dorsal side of the skin, divided into four groups and treated topically on the shaved area with either 0.4 ml vehicle (acetone), or TPA (3.2 nmol/0.4 ml acetone/animal, v/v), or Lupeol (1 or 2 mg/0.2 ml acetone/animal, w/v) followed 30 min later with TPA (3.2 nmol/0.2 ml acetone/animal). Animals were sacrificed at different times point i.e. 6, 12, 24 and 48 h post TPA treatment. The epidermis was separated from the whole skin and homogenized in 0.1 M Tris-HCl buffer (pH 7.2) using a Polytron tissue homogenizer (Brinkmann Instruments, Westbury, N.Y., USA) at 100,000×g supernatant, and microsomal fractions were prepared as described earlier (Katiyar and Mukhtar, 1997). The sample of 6 h treatment group was used to assess the ODC activity as this time point has previously been shown for optimal induction of the enzyme (Katiyar er al., 1996).
Epidermis from the whole skin was separated as described earlier (Katiyar et al., 1999) and was homogenized in ice-cold lysis buffer [50 mM Tris-HCl, 150 mM NaCl, 1 mM EGTA, 1 mM EDTA, 20 mM NaF, 100 mM Na3VO4, 0.5% NP-40, 1% Triton X-100, 1 mM PMSF (pH 7.4)] with freshly added protease inhibitor cocktail, Protease Inhibitor Cocktail Set III (Calbiochem, La Jolla, Calif., USA). The homogenate was then centrifuged at 14,000×g for 25 minutes at 4° C. and the supernatant (total cell lysate) was collected, aliquoted and stored at −80° C. For the preparation of nuclear lysate, 0.2 g of the epidermis was homogenized in 1 ml of ice-cold phosphate-buffered saline (pH 7.6) and centrifuged at 12,000×g for 5 min at 4° C. […] The protein content in the lysates was measured by DC BioRad assay (BioRad Laboratories, Hercules, Calif.) as per the manufacturer's protocol.
For western blot analysis, 40 μg of the protein was resolved over 8-12% polyacrylamide gels and transferred to a nitrocellulose membrane. […] This was followed by incubation with anti-mouse or anti-rabbit secondary antibody horse-radish peroxidase (Amersham Life Sciences, Inc., USA) for 1 h and then washed several times and detected by chemiluminescence ECL kit, (Amersham Life Sciences, Inc., USA) and autoradiography using XAR-5 film obtained from Eastman Kodak Co. (Rochester, N.Y., USA). […]
(A western blot detects proteins with antibodies after separation by electrophoresis.)

The next data set relates to NFκB/p65. Briefly: TPA-induced NFκB/p65 activation and nuclear translocation (western blot). The conditions noted are these: topical Lupeol prior to TPA. The format is in vivo, mouse. The method, then: FIG. 7. Inhibitory effect of Lupeol on TPA-induced NF-κB activation and its subsequent translocation to nucleus in CD-1 mice. (a) At different times after treatment, the animals were sacrificed, nuclear lysates were prepared, and protein expression was determined. The values above each lane indicate relative density of the band.
The animals were shaved on the dorsal side of the skin, divided into four groups and treated topically on the shaved area with either 0.4 ml vehicle (acetone), or TPA (3.2 nmol/0.4 ml acetone/animal, v/v), or Lupeol (1 or 2 mg/0.2 ml acetone/animal, w/v) followed 30 min later with TPA (3.2 nmol/0.2 ml acetone/animal). Animals were sacrificed at different times point i.e. 6, 12, 24 and 48 h post TPA treatment. […]
Epidermis from the whole skin was separated as described earlier (Katiyar et al., 1999) and was homogenized in ice-cold lysis buffer [50 mM Tris-HCl, 150 mM NaCl, 1 mM EGTA, 1 mM EDTA, 20 mM NaF, 100 mM Na3VO4, 0.5% NP-40, 1% Triton X-100, 1 mM PMSF (pH 7.4)] with freshly added protease inhibitor cocktail, Protease Inhibitor Cocktail Set III (Calbiochem, La Jolla, Calif., USA). […] The protein content in the lysates was measured by DC BioRad assay (BioRad Laboratories, Hercules, Calif.) as per the manufacturer's protocol. […]

A further data set relates to CWR22Rv1 cells. Put plainly: CWR22Rv1 xenograft tumor growth in athymic nude mice. The format is in vivo, mouse. To be noted: Lupeol 1 mg/animal i.p. three times a week, vs control mice. The method, then: FIG. 18 depicts effect of lupeol treatment on the growth of tumors from CWR22Rv1 cells implanted in nude mice. The growth was measured in terms of average volume of tumors as a function of time. Data is represented as mean±SD. * indicates p<0.05 (B) Number of mice remaining with tumor volumes<1000 mm^3 after treatment with corn oil alone or Lupeol for indicated weeks. * indicates p<0.01
To determine, whether lupeol could reduce the tumorigenicity of prostate cancer cells in animal model, androgen-dependent prostate cancer cells CW22Rv1, were implanted in a Athymic nude mouse xenograft model. Mice were given i.p. injection of Lupeol (1 mg/animal) three times a week. Tumor growth was measured weekly in terms of volume of tumors as function of time.

Each structure is given as a SMILES string. “Also recorded” adds a separate entry of the source.

On to `C=C(C)[C@@H]1CC[C@]2(C)CC[C@]3(C)[C@H](CC[C@@H]4[C@@]5(C)CC[C@H](O)C(C)(C)[C@@H]5CC[C@]43C)[C@@H]12` [Lupeol, Lup-20(29)-en-3β-ol], for which the “epidermal hyperplasia after Lupeol alone” value in the data set with CD-1 mouse skin (Lupeol alone) is recorded as “did not induce any epidermal hyperplasia”. For the same molecule, in the data set with CD-1 mouse skin (topical Lupeol prior to TPA, 24 and 48 h), the “induction of epidermal hyperplasia by TPA” value is on record as “resulted in inhibition in the induction of epidermal hyperplasia”. Also, the “expression of p110 and p85” value in data set [1] (2 mg Lupeol prior to TPA) is “recovery of the expression of both p110 and p85 almost to their basal levels”. The “TPA-induced increased expression of catalytic and regulatory subunits of PI3K” value in data set [1] (topical Lupeol 30 min prior to TPA) is listed as “significant inhibition”. Also, the “TPA-induced NFκB/p65 activation and nuclear translocation” value in the data set on NFκB/p65 was “inhibited”. Besides, the “tumor growth (tumor volume as function of time)” value in the data set on CWR22Rv1 cells is on record as “significant reduction in tumor growth; also recorded: significantly Lower than control mice”.
